Two molecules from US20090149397A1, “TREATMENT OF CANCER WITH COMBINATIONS OF TOPOISOMERASE INHIBITORS AND PARP INHIBITORS” (priority 2007, published 2009) can be followed below.

For experiment [1], the system named is human colon, lung, and cervical carcinoma xenograft. The experiment is described as follows: Human colon, lung and cervical carcinoma xenograft models, BA administration. The format is in vivo, nude and SCID mice.
In experiment [2] the test system is human tumor cells including colon, prostate, cervix, lung, melanoma, lymphoma, and leukemia. The experiment is described as follows: In vitro proliferation of human tumor cells. The format is cell-based.
The test system of experiment [3] is human small cell lung cancer SW-2 cells. The experiment is described as follows: Subcutaneous xenograft model of SCLC, BA plus topotecan. In kind it is in vivo, SCID mice. The settings on record: SW-2 xenograft; for tumor growth delay: topotecan i.p. 0.5, 1 or 2 mg/kg, BA 25 mg/kg/week continuous infusion, BA value in 3 out of 6 animals. The protocol:
The anti-tumor effect of a combination of BA and topotecan, one of the approved drugs for the treatment of small cell lung cancer (SCLC) in humans, is evaluated in an established subcutaneous xenograft model of SCLC. SCID mice (24 animals) are inoculated with human small cell lung cancer SW-2 cells (8×10^6 cells/animal) injected subcutaneously into the right flank of the mice. When the tumors reach about 80 mm^3 in size, the mice are randomly divided into four groups (6 animals per group). The first group of mice is treated with topotecan administered i.p. […] Alzet model osmotic pumps are implanted on days 1, 15, and 29. The pumps are pre-warmed for ˜1 hour at 37° C., and then implanted subcutaneously (s.c.) in the left flanks of isofluoraneanesthetized mice. The third group of mice receives a combination of topotecan and BA, using the same doses and schedules as in groups 1 and 2. A control group of animals receives phosphate-buffered saline (PBS) using the same schedule as the animals in group 2. Tumor growth is monitored by measuring tumor size twice per week. Tumor size is calculated using the formula: length×width×height×(½).

Regarding `NC(=O)c1ccc(I)c([N+](=O)[O-])c1` [BA, 4-iodo-3-nitrobenzamide], in experiment [1] (drug given daily or twice weekly), the “survival rate of animals” value is “positively affects the survival rate”. In addition, the tumor growth entry in experiment [1] (once-daily or twice-weekly administration of BA) was “inhibits tumor growth”. In addition, the “inhibition of proliferation of human tumor cells” value in experiment [2] was “inhibits the proliferation”. Further, the “complete tumor regression, number of animals” value in experiment [3] (out of 6 treated animals per group) amounted to 3 animals. In addition, the tumor growth delay in experiment [3] is 34 days.
In the case of `CC[C@@]1(O)C(=O)OCc2c1cc1n(c2=O)Cc2cc3c(CN(C)C)c(O)ccc3nc2-1` [topotecan, reference compound], in experiment [3], the tumor growth delay is 12 days.
